From patent publication US20220117949A1, “LTA4H INHIBITORS FOR THE TREATMENT OF HIDRADENITIS SUPPURATIVA” (NOVARTIS AG, priority 2019, published 2022)

What was measured:
[1] = test system: LTB4 biosynthesis in lesional skin biopsies of HS patients; assay: LTB4 biosynthesis in ionophore-stimulated skin biopsies of HS patients (LC-MS/MS); type: cell-based, human; details: 5 uM inhibitor 2 h, then 2 h 10 ug/mL ionophore
Protocol: Frozen human skin biopsies from healthy skin or discard HS lesions (on average 500 mg) were pulverized using mechanical force (Covaris) and homogenized in 4 mL of methanol containing deuterium labelled internal standards (ISTDs) using a bead-beating device (2×20 sec cycles of 5000 rpm, Precellys) maintained at low temperature. Then, samples were kept at −20° C./45 min to allow for protein precipitation and centrifuged at 13000 rpm for 10 min at 4° C. The supernatants were then evaporated (Genevac) until complete dryness and reconstituted in 70 μL of methanol:water (50%/50%; v/v) followed by injection in the LC-MS/MS system. Calibration curves were freshly prepared by serial dilution of pure standards in methanol:water (50%/50%, v/v) containing ISTDs and quantitation was done by comparing metabolite to ISTD peak area ratios in samples to that of calibrators.
Two analytical platforms were employed for data acquision depending on instrument availability: 1) Waters H class UPLC system coupled to a Waters XevoTQS triple quadrupole mass (QQQ) spectrometer and 2) a Dionex Ultimate 3000RS UPLC coupled to a Sciex6500+ QQQ. Separation of lipids was achieved using reverse-phase columns ACQUITY UPLC BEH C18 1.7 μm, 2.1×50 mm and CORTECS UPLC C18 1.6 μm, 2.1×50 mm heated at 40° C., respectively. The flow rate was set to 0.180 mL/min and the mobile phase consisted of water-acetic acid (99.99/0.01; v/v) (A) and methanol-acetonitrile-acetic acid (B) (50/50/0.01; v/v/v). The eluent gradient was maintained at 45% of B for 2 min, follow by 45%-65% of B during 2-16 min, from 65%-100% during 16-19 min and 100% of B from 19-22 min. From 23-30 min the column was re-equilibrated with initial conditions. Ionization was performed using an ESI source operated in negative ion mode. Fragmentation was tuned for each compound individually.
. Skin biopsies were then harvested, lipids extracted and analyzed for generation of LTB4 by LC-MS/MS as described above. Stimulated skin biopsies of HS lesions generated a large amount of the lipid mediator LTB4. […]. (FIGS. 10 and 11)
Lesional skin biopsies of HS patients were left untreated or fully stimulated with ionophore to induce LTB4 biosynthesis in the presence or absence of a LTA4H inhibitor
LTB4 quantities are given in fmol/mg tissue. Shown are representative results obtained with one donor per compound out of several tested.

clinical = details: for mean concentration in blister fluid: pre-dose on Day 9
Excerpt: In parts 1 and 2 of the clinical study (SAD and MAD), skin blisters were induced on the arm of subjects in selected cohorts.
(§1) Blister fluid samples were collected at Day 1 pre-dose and Day 2 pre-dose in SAD cohort 4 as well as Day 1 pre-dose and Day 9 predose in MAD cohort 2-5.

[2] = test system: LTB4 in human skin blister fluids; assay: LTB4 in cantharidin induced skin blister fluid (FIH); type: in vivo; details: 40 mg daily dose (20 mg BID)
Protocol: In parts 1 and 2 of the clinical study (SAD and MAD), skin blisters were induced on the arm of subjects in selected cohorts. For this 10 mm diameter filter paper discs humected with a solution of cantharidin (such as cantharone) were applied on the arm of the subject, inducing an epidermal blister, and the blister fluid was collected approximately 24 hours (+/−1 hr) after the application.
as §1
Blister fluid samples were received frozen on dry ice and stored at −70° C. or below until analysis. On the day of analysis, samples were taken out of the freezer and immediately extracted after Thawing.
90 μL of blister fluid (sample or QC sample) was enriched with 5 μL of internal standard solution IS-L-2 (deuterated Leukotrienes and lipoxin at 50 ng/mL) and vortexed in a micro centrifuge tube. 90 μL of methanol with 0.1% formic acid was added. This was followed by 5 minutes vortex mixing and 10 minutes sonication on ice. The samples were incubated at −20° C. in a freezer for 40 minutes. This was followed by centrifugation at 16,000 rpm (27,500×g) at 4° C. for 20 minutes. 160 μL of the supernatant was transferred onto Millipore 5 kDa MWCO filters. MWCO filters have previously been cleaned by centrifuging 500 μL methanol/water 1/1 thru the filters. […]

[3] = First in human trial Part 1 (SAD): plasma pharmacokinetics
Excerpt: (§2) The study consisted of a part 1, single ascending dose (SAD) and a part 2 multiple ascending dose (MAD).
(§3) Part 1 was a randomized, subject-blinded and Investigator-partial-blinded, placebo-controlled, single ascending oral dose study.

[4] = First in human trial (SAD/MAD): safety and tolerability in healthy subjects
Protocol: as §2, §3
(§4) Cohort 1: multiple once daily (qd) oral dose of 5 mg or matching placebo Cohort 2: multiple once daily (qd) oral dose of 15 mg or matching placebo Cohort 3: multiple oral daily dose of 20 mg or matching placebo administered twice daily (bid) Cohort 4: multiple oral daily dose of 40 mg or matching placebo administered twice daily (bid) Cohort 5: multiple oral daily dose of 80 mg or matching placebo administered twice daily (bid) Part 2 Multiple Ascending Dose Design (qd)—Overview of the Study Part 2 Multiple Ascending Dose Design (Bid)—Overview of the Study

[5] = test system: Leukotriene B4 (LTB4) in blood; assay: Leukotriene B4 (LTB4) in human plasma of ex vivo stimulated whole blood (FIH PD biomarker, LC-MS/MS)
Protocol: Therefore, LTB4 concentrations were determined in plasma of ex-vivo stimulated whole blood by a LC-MS/MS method.
Ex-vivo stimulation was performed at the clinical site according to the following procedure: Whole blood (500 μL) were stimulated for 30 min using Calcium Ionophore A23187.
Human plasma was processed with organic precipitation followed by separation by reverse phase high performance liquid chromatography with tandem mass spectrometric detection.
AB Sciex QTrap 5500 MS/MS Turbo Spray Ion Drive negative ion mode.
Sample from each subject and time point was prepared and analyzed in three aliquots. Aliquot one and two contained plasma from ex-vivo stimulated whole blood, while aliquot three as negative control contained plasma from non-stimulated whole blood.
LTB4 concentration data were calculated as mean of concentration of aliquot one and two. Concentration of aliquot three was not be included in the calculation. The change from baseline and percent inhibition (percent of baseline) for each biomarker was calculated. Baseline was the mean of the Baseline and Day 1, −1 h measurements.

[6] = First in human trial Part 2 (MAD): plasma pharmacokinetics
Protocol: as §2, §4

[7] = 5 mg qd to 80 mg bid (16-fold per dosing interval)

SMILES: N[C@@H](CC(=O)O)Cn1nnc(-c2ccc(Oc3ccc(Cl)cc3)cc2)n1 [compound of embodiment 3D, (S)-3-amino-4-(5-(4-(4-chlorophenoxy)-phenyl)-2H-tetrazol-2-yl)butanoic acid]
- LTB4 generation by stimulated skin biopsies of HS lesions [1]: almost no LTB4
- LTB4 generation by stimulated skin biopsies of HS lesions ([1]; listed as Compound of embodiment 3D): suppresses

SMILES: N[C@@H](CC(=O)O)Cn1nnc(-c2ccc(Oc3ncc(Cl)cc3F)cc2)n1 [compound of example 1, (S)-3-amino-4-(5-(4-((5-chloro-3-fluoropyridin-2-yl)oxy)phenyl)-2H-tetrazol-2-yl)butanoic acid]
- LTB4 generation by stimulated skin biopsies of HS lesions [1]: almost no LTB4
- LTB4 generation by stimulated skin biopsies of HS lesions ([1]; listed as Compound of Example 1): suppresses
- mean concentration in blister fluid (clinical; Part 2, 15 mg qd): 4.62 ng/mL
- mean concentration in blister fluid (clinical; Part 2, 80 mg bid): 233 ng/mL
- Kp at 24 h (clinical; human, in vivo, 30 mg): 0.14
- concentration at 24 h (clinical; human, in vivo, 30 mg): 4.67 ng/mL
- suppression of LTB4 in human skin blister fluids [2]: 90%
- dose proportionality of AUClast over the whole dose range ([3]; 5 mg to 2 times 100 mg): demonstrated
- AUC0-24 h increase with dose ([3]; 40-fold increase in daily dose (5 mg to 100 mg bid)): 75 fold
- increase in dose over which AUC0-24 h can be considered dose proportional ([3]; SAD): ≤ 2.57 fold
- increase in dose over which Cmax can be considered dose proportional ([3]; SAD): up to 4.50 fold
- Cmax increase with dose ([3]; dose increase from 5 to 100 mg (20-fold)): 21.7 fold
- Tmax ([3]; human, in vivo, po): 1 to 1.5 h
- half-life ([3]; human, in vivo, po): 245 to 513 h
- findings in physical exam, vital signs or ECGs related to compound ([4]; SAD and MAD, healthy subjects): No significant findings
- maximal tolerated dose ([4]; SAD up to 200 mg total daily dose, MAD up to 80 mg BID for 12 days): no maximal tolerated dose was established
- adverse events leading to study discontinuation ([4]; SAD up to 2 x 100 mg, MAD up to 80 mg BID for 12 days, healthy subjects): No adverse events led to study discontinuation
- tolerability ([4]; doses up to 80 mg bid (160 mg daily dose) over 12 days, healthy subjects): well tolerated
- treated subjects with increases in lipase ([4]; one SAD 5 mg, two MAD 80 mg BID, asymptomatic, transient): Three
- amylase increase accompanying lipase increase ([4]; the three subjects with lipase elevations, mild): ≤ 1.5 ULN
- suppression of LTB4 in blood at steady state ([5]; 40 mg daily dose (20 mg BID)): nearly complete suppression
- blood cell stimulated LTB4 release, reduction from baseline ([5]; SAD 5 mg, at 24 hours): 25-50%
- AUC on Day 12 (AUC0-12 h,ss bid; AUC0-24 h,ss qd) increase with dose [6, 7]: 20.9 fold
- Cmax on Day 12 increase with dose [6, 7]: 17.9 fold
- time to reach steady state exposure ([6]; BID oral dosing, fed state): 3 to 4 days
- increase in dose over which AUCtau can be considered dose proportional ([6]; MAD): ≤ 6.29 fold
- increase in dose over which Cmax,ss can be considered dose proportional ([6]; MAD): up to 2.12 fold
- accumulation to steady state ([6]; all higher doses (above 5 mg qd)): ≤ 1.4 fold
- mean Racc, day 1 ([6]; day 1 of the bid regimen): 1.09-1.29
- mean accumulation to steady state ([6]; lowest dose of 5 mg qd): 2.1 fold
- time at which steady state is achieved ([6]; morning pre-dose concentrations, MAD): ~3 days
- dose proportionality criteria for AUCtau ([6]; steady state, 5 mg qd to 40 mg bid): met
